Laboratory results reported in ChEMBL document CHEMBL5465560, “Selectivity Literature for EUbOPEN Chemogenomic Library” (2024).

Experiments:
[1] = target: Mitogen-activated protein kinase kinase kinase 1 (Homo sapiens, UniProt Q13233); assay: Selectivity interaction (KinomeScan (DiscoverX)) EUB0000595a MAP3K1; details: at 10 µM
[2] = target: Serine/threonine-protein kinase pim-3 (Homo sapiens) (UniProt Q86V86); assay: Selectivity interaction (KinomeScan (DiscoverX)) EUB0000595a PIM3; details: at 10 µM
[3] = target: Macrophage-stimulating protein receptor (Homo sapiens, UniProt Q04912); assay: Selectivity interaction (KinomeScan (DiscoverX)) EUB0000045b MST1R
[4] = target: Tyrosine-protein kinase Blk (Homo sapiens) (UniProt P51451); assay: Selectivity interaction (KinomeScan (DiscoverX)) EUB0000045b BLK
[5] = target: NT-3 growth factor receptor (Homo sapiens, UniProt Q16288); assay: Selectivity interaction (KinomeScan (DiscoverX)) EUB0001079a NTRK3; details: at 1 µM
[6] = target: Histone-lysine N-methyltransferase 2C (Homo sapiens) (UniProt Q8NEZ4); assay: Selectivity interaction (Methyltransferase screen (radiometric assays, panel of 8 PRMTs, 21 protein lysine methyltransferases, 3 DNA methyltransferases, and one RNA methyltransferase)) EUB0000272b MLL3
[7] = target: Casein kinase I isoform delta (Homo sapiens, UniProt P48730); assay: Selectivity interaction (KinomeScan (DiscoverX)) EUB0000666a CSNK1D; details: at 10 µM
SRSF protein kinase 1 = SRSF protein kinase 1 (Homo sapiens, UniProt Q96SB4); assay: Selectivity interaction (KinomeScan (DiscoverX)) EUB0000666a SRPK1; details: at 10 µM
[8] = target: T1, Mitogen-activated protein kinase kinase kinase kinase 3 (Homo sapiens) (UniProt Q8IVH8); details: at 10 µM
T1 sequence (whole entry): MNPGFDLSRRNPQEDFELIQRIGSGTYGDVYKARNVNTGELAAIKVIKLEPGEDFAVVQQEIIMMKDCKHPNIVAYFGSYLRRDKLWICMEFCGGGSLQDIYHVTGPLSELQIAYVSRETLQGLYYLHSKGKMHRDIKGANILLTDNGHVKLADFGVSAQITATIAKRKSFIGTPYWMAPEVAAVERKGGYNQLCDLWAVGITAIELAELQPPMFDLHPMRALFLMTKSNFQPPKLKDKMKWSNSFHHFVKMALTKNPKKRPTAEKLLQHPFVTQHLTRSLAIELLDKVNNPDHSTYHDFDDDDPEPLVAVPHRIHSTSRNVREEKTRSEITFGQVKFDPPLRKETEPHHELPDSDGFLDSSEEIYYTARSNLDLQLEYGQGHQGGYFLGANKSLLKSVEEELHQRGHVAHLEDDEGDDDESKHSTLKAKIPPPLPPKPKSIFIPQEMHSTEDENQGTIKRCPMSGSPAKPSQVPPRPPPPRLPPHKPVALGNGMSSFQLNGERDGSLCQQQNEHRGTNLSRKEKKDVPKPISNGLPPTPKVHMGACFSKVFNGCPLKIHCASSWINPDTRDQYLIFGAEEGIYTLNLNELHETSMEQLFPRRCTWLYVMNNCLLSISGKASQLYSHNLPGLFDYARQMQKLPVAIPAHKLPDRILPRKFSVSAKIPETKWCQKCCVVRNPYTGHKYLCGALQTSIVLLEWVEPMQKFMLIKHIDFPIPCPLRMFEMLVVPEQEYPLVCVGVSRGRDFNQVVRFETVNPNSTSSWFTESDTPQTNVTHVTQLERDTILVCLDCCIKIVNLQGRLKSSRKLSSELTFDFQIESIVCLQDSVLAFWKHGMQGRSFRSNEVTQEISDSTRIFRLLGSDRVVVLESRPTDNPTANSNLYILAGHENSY

[9] = target: Histone-lysine N-methyltransferase SETDB1 (Homo sapiens) (UniProt Q15047); assay: Selectivity interaction (Methyltransferase screen (radiometric assays, panel of 8 PRMTs, 21 protein lysine methyltransferases, 3 DNA methyltransferases, and one RNA methyltransferase)) EUB0000271b SETDB1
[10] = target: Adenosine receptor A3 (Homo sapiens) (UniProt P0DMS8); assay: Selectivity interaction (Eurofins CEREP Diversity Profile (receptors and ion channels)) EUB0000279b ADORA3; details: at 10 µM
[11] = target: Serine/threonine-protein kinase MARK2 (Homo sapiens) (UniProt Q7KZI7); assay: Selectivity interaction (Millipore kinase profiler) EUB0000124b MARK2; details: at 10 µM
[12] = target: Bone morphogenetic protein receptor type-1B (Homo sapiens, UniProt O00238); assay: Selectivity interaction (KinomeScan (DiscoverX)) EUB0001619a BMPR1B; details: at 1 µM
[13] = target: T2, Histone-lysine N-methyltransferase SMYD3 (Homo sapiens) (UniProt Q9H7B4); assay: Selectivity interaction (Methyltransferase screen (Scintillation proximity assays)) EUB0000255b SMYD3
T2 sequence (whole entry): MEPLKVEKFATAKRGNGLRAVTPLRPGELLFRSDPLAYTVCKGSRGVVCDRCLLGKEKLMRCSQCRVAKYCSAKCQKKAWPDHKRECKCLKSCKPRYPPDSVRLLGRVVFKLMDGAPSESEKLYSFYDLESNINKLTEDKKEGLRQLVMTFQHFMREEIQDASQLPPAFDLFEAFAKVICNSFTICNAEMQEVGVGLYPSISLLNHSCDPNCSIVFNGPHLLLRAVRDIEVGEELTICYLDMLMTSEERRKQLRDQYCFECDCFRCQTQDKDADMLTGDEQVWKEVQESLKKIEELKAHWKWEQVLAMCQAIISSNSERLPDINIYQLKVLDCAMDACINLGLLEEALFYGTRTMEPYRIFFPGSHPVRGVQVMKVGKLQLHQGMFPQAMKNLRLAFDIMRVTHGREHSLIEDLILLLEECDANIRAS

[14] = target: Mitotic checkpoint serine/threonine-protein kinase BUB1 (Homo sapiens, UniProt O43683); assay: Selectivity interaction (KinomeScan (DiscoverX)) EUB0000607a BUB1; details: at 10 µM
[15] = target: Serine/threonine-protein kinase PAK 4 (Homo sapiens, UniProt O96013); assay: Selectivity interaction (SelectScreen profiling (Invitrogen)) EUB0000607a PAK4; details: at 2 µM
[16] = target: Serine/threonine-protein kinase pim-3 (Homo sapiens) (UniProt Q86V86); assay: Selectivity interaction (KinomeScan (DiscoverX)) EUB0000618a PIM3; details: at 10 µM
[17] = target: Phosphorylase b kinase gamma catalytic chain, skeletal muscle/heart isoform (Homo sapiens) (UniProt Q16816); assay: Selectivity interaction (Kinase panel (Invitrogen)) EUB0000639a PHKG1; details: at 200 nM
[18] = target: Calcium/calmodulin-dependent protein kinase type 1 (Homo sapiens) (UniProt Q14012); details: at 10 µM
[19] = target: TRAF2 and NCK-interacting protein kinase (Homo sapiens) (UniProt Q9UKE5); assay: Selectivity interaction (KinomeScan (DiscoverX)) EUB0000092b TNIK; details: at 10 µM
[20] = target: Serine/threonine-protein kinase Chk2 (Homo sapiens) (UniProt O96017); assay: Selectivity interaction (KinomeScan (DiscoverX)) EUB0000092b CHEK2; details: at 10 µM

Chain of Macrophage-stimulating protein receptor (Q04912 25-304 limits assumed): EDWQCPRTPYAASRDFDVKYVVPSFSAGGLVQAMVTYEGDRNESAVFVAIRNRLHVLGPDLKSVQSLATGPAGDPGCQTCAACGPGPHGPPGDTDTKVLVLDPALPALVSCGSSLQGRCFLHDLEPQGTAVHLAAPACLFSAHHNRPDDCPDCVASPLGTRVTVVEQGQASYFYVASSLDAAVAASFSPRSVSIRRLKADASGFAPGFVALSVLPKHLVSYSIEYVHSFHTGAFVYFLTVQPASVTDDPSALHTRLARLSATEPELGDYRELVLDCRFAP
Chain of Macrophage-stimulating protein receptor (Q04912 310-1400 limits assumed): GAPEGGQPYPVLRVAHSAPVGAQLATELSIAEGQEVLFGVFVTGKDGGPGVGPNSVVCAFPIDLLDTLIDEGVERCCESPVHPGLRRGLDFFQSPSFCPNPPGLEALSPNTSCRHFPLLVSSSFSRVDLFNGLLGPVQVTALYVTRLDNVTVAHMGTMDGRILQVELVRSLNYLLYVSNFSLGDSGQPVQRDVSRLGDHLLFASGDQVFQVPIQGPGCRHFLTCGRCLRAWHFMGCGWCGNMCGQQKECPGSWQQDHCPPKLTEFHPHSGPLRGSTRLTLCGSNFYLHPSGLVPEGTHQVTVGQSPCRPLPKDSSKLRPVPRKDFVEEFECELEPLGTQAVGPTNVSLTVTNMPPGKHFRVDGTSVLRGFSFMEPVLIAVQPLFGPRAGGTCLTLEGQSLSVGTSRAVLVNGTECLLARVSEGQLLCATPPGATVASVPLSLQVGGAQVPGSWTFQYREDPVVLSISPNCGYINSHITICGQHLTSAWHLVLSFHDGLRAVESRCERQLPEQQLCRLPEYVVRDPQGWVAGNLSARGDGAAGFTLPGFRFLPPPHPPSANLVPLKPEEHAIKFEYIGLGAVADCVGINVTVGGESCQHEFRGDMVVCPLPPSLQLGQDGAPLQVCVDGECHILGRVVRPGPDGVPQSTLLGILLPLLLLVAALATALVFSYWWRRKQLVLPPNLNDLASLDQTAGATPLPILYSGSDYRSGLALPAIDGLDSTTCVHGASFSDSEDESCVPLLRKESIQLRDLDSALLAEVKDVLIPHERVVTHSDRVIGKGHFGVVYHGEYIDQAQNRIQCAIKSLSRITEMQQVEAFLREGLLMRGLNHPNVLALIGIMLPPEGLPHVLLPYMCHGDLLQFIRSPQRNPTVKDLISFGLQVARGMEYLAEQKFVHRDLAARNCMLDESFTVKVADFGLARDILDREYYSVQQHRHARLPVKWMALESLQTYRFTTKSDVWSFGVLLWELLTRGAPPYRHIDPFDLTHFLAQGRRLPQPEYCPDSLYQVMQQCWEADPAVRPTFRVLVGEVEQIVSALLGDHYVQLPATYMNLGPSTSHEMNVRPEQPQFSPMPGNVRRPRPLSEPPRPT
Chain of Tyrosine-protein kinase Blk (Homo sapiens) (P51451 2-505 limits assumed): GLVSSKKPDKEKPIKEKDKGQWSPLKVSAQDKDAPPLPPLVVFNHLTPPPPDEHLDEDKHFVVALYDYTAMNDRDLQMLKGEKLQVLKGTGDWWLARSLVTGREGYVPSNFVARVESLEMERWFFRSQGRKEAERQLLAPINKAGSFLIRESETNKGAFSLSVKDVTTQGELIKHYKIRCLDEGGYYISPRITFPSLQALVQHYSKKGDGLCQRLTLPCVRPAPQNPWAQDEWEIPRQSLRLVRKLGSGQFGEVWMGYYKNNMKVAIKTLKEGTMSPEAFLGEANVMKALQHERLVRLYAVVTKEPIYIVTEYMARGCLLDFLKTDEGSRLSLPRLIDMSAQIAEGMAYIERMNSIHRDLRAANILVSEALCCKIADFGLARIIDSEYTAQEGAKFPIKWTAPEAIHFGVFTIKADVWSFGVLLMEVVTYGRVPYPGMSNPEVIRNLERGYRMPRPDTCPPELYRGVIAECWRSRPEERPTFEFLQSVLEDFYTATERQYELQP
Chain of Calcium/calmodulin-dependent protein kinase type 1 (Homo sapiens) (Q14012 whole entry, looked up): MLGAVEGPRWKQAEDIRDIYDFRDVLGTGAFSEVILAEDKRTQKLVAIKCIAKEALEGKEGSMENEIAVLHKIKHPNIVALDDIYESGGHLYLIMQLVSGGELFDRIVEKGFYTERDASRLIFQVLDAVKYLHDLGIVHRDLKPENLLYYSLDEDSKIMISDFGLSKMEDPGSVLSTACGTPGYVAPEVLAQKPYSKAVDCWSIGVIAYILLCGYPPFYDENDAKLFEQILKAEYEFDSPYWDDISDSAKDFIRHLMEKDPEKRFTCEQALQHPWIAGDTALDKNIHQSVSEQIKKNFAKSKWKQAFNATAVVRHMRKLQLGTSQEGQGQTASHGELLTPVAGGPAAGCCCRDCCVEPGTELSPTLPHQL
Chain of Mitotic checkpoint serine/threonine-protein kinase BUB1 (O43683 whole entry, looked up): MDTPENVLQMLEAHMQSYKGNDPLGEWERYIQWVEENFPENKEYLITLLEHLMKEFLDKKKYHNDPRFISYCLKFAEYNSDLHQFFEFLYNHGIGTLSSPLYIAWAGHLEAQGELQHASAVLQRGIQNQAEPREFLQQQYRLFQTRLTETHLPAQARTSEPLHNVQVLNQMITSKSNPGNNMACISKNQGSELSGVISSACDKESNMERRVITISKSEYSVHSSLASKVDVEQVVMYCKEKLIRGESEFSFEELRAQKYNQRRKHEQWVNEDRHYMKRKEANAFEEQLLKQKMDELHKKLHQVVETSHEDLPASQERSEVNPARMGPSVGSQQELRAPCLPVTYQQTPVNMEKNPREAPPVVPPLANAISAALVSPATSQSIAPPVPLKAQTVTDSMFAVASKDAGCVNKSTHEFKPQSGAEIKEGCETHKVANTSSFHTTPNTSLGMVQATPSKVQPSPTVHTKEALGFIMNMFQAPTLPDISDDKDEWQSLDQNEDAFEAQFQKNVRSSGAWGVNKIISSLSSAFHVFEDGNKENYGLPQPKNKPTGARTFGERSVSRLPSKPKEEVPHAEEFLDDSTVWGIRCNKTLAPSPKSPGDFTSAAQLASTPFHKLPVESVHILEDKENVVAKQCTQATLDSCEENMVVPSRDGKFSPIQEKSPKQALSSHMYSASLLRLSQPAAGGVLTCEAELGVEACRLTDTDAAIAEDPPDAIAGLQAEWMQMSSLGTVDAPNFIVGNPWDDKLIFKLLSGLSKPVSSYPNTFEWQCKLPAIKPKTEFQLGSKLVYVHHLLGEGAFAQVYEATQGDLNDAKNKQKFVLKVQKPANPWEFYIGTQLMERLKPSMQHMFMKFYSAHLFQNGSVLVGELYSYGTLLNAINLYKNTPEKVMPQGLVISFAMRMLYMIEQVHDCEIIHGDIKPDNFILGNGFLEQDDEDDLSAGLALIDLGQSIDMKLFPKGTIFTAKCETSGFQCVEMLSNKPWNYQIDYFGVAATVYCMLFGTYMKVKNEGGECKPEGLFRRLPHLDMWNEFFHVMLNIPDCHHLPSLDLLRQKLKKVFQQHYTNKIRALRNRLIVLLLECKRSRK
Chain of Phosphorylase b kinase gamma catalytic chain, skeletal muscle/heart isoform (Homo sapiens) (Q16816 whole entry, looked up, canonical isoform): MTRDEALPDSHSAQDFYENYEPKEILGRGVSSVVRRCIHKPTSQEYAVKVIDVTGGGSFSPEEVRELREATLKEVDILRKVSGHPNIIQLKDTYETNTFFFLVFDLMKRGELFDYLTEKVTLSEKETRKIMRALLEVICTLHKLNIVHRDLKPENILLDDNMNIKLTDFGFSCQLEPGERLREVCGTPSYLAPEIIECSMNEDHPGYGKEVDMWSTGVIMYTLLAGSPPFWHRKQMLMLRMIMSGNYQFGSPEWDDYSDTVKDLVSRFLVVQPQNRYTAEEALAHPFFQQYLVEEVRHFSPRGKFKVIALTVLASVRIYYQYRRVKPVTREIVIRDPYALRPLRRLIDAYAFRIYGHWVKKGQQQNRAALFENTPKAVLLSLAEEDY
Chain of Bone morphogenetic protein receptor type-1B (O00238 whole entry): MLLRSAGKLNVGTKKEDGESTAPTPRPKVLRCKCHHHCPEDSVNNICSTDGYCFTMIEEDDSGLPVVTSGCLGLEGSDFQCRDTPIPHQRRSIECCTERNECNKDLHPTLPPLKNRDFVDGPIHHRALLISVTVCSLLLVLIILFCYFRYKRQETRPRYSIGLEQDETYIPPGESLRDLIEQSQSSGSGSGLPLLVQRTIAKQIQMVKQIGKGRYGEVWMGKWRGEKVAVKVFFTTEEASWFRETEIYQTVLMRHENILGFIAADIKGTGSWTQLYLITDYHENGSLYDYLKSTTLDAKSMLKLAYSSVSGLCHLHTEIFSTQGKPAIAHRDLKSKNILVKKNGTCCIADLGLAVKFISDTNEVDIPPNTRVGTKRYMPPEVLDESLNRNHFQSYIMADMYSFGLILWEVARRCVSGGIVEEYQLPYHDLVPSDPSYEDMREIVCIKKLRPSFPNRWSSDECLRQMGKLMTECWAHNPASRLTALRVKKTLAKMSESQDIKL
Chain of Adenosine receptor A3 (Homo sapiens) (P0DMS8 whole entry): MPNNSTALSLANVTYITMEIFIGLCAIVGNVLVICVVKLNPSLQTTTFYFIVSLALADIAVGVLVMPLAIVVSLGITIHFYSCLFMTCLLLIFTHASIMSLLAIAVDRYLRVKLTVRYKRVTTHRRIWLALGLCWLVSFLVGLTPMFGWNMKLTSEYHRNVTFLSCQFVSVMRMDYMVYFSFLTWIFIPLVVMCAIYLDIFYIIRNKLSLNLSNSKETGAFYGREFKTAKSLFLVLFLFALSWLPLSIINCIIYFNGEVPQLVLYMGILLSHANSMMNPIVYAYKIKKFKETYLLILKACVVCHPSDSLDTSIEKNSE

Compound: COCC(=O)NC/C=C/c1ccc2ncnc(Nc3ccc(Oc4ccc(C)nc4)c(C)c3)c2c1 [CP-724714]
- % of control [1]: 100%
- % of control [2]: 100%

Compound: C=CC(=O)Nc1cc(-n2c(=O)ccc3cnc4ccc(-c5ccc(NS(C)(=O)=O)cc5)cc4c32)ccc1C
- % of control ([3]; at 1 µM): 100%
- % of control ([3]; at 10 µM): 100%
- % of control ([4]; at 1 µM): 40%
- % of control ([4]; at 10 µM): 4.8%

Compound: Nc1cnc(N2CCc3cc(S(=O)(=O)Nc4c(F)cc(Cl)cc4F)cc(N4CCCC4=O)c32)nc1 [TP-020n]
- % of control [5]: 97%

Compound: Cc1cc(C)cc([C@H]2c3cc(C)ccc3NC(=O)CN2C(=O)c2ccc(Br)s2)c1
- % of activity ([6]; at 1 µM): 101%
- % of activity ([6]; at 10 µM): 92%

Compound: O=C(NOC[C@H](O)CO)c1ccc(F)c(F)c1Nc1ccc(I)cc1F
- % of control [7]: 100%
- % of control (SRSF protein kinase 1): 100%

Compound: Cc1cc([C@@H](C)Nc2ccccc2C(=O)O)c2nc(N3CCOCC3)cc(=O)n2c1 [AZD-6482]
- % of control [8]: 88%

Compound: Cc1cc(C)cc([C@@H]2c3cc(C)ccc3NC(=O)CN2C(=O)c2ccc(Br)s2)c1
- % of activity ([9]; at 1 µM): 102%
- % of activity ([9]; at 10 µM): 104%

Compound: CC(=O)c1cc(-c2ccccc2OCC2CC2)c2ncccn12
- % of control [10]: 23%

Compound: CC(=O)Nc1cccc(-n2c(=O)n(C3CC3)c(=O)c3c(Nc4ccc(I)cc4F)n(C)c(=O)c(C)c32)c1
- % of control [11]: 116%

Compound: N#Cc1cccc(-c2c[nH]c3ncnc(N4CCOCC4)c23)c1
- % of control [12]: 31%

Compound: COCCN1CCC(c2cc(CN(C)C(=O)c3cccc(Oc4ccccc4)c3)ccn2)CC1
- % activity ([13]; at 1 µM): > 95%
- % activity ([13]; at 10 µM): 83%

Compound: CNC(=O)Nc1ccc(-c2nc(N3CC4CCC(C3)O4)c3cnn(C4CCC5(CC4)OCCO5)c3n2)cc1
- % of control [14]: 52%
- % of inhibition [15]: 13%

Compound: O[C@H]1CC[C@H](Nc2ncc3nc(Nc4c(F)cc(F)cc4F)n([C@H]4CCOC4)c3n2)CC1
- % of control [16]: 100%

Compound: CC[C@@H]1[C@H](F)C(=O)N[C@@H]1COc1nccc2cc(C(N)=O)c(OC)cc12 [ZIMLOVISERTIB]
- % of inhibition [17]: 16.7%

Compound: CCN(CC)CCCCNc1ncc2cc(-c3cc(OC)cc(OC)c3)c(NC(=O)NC(C)(C)C)nc2n1
- % of control [18]: 100%

Compound: CCC(=O)N1CCN(c2ccc(-n3c(=O)ccc4cnc5ccc(-c6cnc7ccccc7c6)cc5c43)cc2C(F)(F)F)CC1
- % of control [19]: 39%
- % of control [20]: 100%
